Read-outs that look alike come from different tables or passages of the source.
What was measured:
HepG2 cell line = assay: MTT cytotoxicity assay, HepG2; assay type: cell-based; details: Homo sapiens
From the text: (§1) The human HCC cell line, HEPG-2, was obtained from the American Type Culture Collection and used to evaluate the effects of the following drugs. MCF-7(ATCC® HTB-22TM, Manassas, VA, USA) breast cancer cells were derived from mammary gland or breast at a metastatic site. […] The human Caco-2 cell line, Caco-2, was obtained from the American Type Culture Collection and used to evaluate the effects of the following drugs. […], Manassas, VA, USA), epithelial-like lung carcinoma, was derived from lung tissue at a metastatic site. The human A549 cell line, A549, was obtained from the American Type Culture Collection and used to evaluate the effects of the following drugs. […] LLC., Burlington, VT, USA). Penicillin/streptomycin (Gibco®, Grand Island, NY, USA) was applied at 100 units/mL and 100 μg/mL, respectively. Growth inhibition was determined by classic MTT assay. In brief, HEPG2, A549, MCF-7 and Caco-2 cells were added to a cell culture MTT assay plate at a concentration of 5 × 10^3 cells/well in 1640 medium and cultured overnight. The different treatments were added on day 1 according to the calculated doses except on the control well and standard, then incubated for 24 h.

MCF-7 cell line = assay: MTT cytotoxicity assay, MCF-7; assay type: cell-based; details: Homo sapiens, MCF7, read-out: IC50 MCF-7 Breast Cancer
From the text: as §1

CaCo-2 cell line = assay: MTT cytotoxicity assay, CaCo-2; assay type: cell-based; details: Homo sapiens, read-out: IC50 CaCo-2 Colon Cancer
From the text: (§2) • HepG2 [HEPG2] (ATCC® HB-8065™, Manassas, VA, USA) epithelial hepatocellular carcinoma was derived from the liver tissue of a person (a well-differentiated hepatocellular carcinoma). The human HCC cell line, HEPG-2, was obtained from the American Type Culture Collection and used to evaluate the effects of the following drugs. MCF-7(ATCC® HTB-22™, Manassas, VA, USA) breast cancer cells were derived from mammary gland or breast at a metastatic site. The human MCF-7 cell line, MCF-7, was obtained from the American Type Culture Collection and used to evaluate the effects of the following drugs. • Caco 2 [Caco2] (ATCC® HTB 37™, Manassas, VA, USA) epithelial colorectal adenocarcinoma was derived from the colon at a metastatic site. The human Caco-2 cell line, Caco-2, was obtained from the American Type Culture Collection and used to evaluate the effects of the following drugs. A549 (ATCC® CCL-185™, Manassas, VA, USA), epithelial-like lung carcinoma, was derived from lung tissue at a metastatic site. The human A549 cell line, A549, was obtained from the American Type Culture Collection and used to evaluate the effects of the following drugs.
(§3) HEPG2, A549, MCF-7 and Caco-2 cells were maintained in a monolayer culture in a T-25 flask at 5% CO2 and 37 °C in DMEM (Lonza, Verviers, Belgium) and supplemented with 10% (v/v) FBS (Sigma-Aldrich Co. LLC., Burlington, VT, USA). Penicillin/streptomycin (Gibco®, Grand Island, NY, USA) was applied at 100 units/mL and 100 µg/mL, respectively.
(§4) Growth inhibition was determined by classic MTT assay. In brief, HEPG2, A549, MCF-7 and Caco-2 cells were added to a cell culture MTT assay plate at a concentration of 5 × 10^3 cells/well in 1640 medium and cultured overnight. The different treatments were added on day 1 according to the calculated doses except on the control well and standard, then incubated for 24 h. Measurement was achieved using a microplate reader (Model 550, Bio-Rad, Hercules, CA, USA).

A-549 cell line = assay: MTT cytotoxicity assay, A-549; assay type: cell-based; details: Homo sapiens, A549, read-out: IC50 A-549 Lung Carcinoma
From the text: as §2, §3, §4

[1] = tested on: HepG2, MCF-7, A-549 and CaCo-2 cell lines; assay: MTT cytotoxicity assay, summary over all tested cell lines; assay type: cell-based, human; details: Homo sapiens; range over compounds and cell lines; read-out: IC50 values versus all tested cell lines (collective range)
From the text: as §2, §3, §4

[2] = tested on: VEGF protein expression level in HepG2 cell line; assay: VEGF ELISA in HepG2 cell culture supernatant; assay type: cell-based, human; set-up: concentration or dose not given beside the values; details: compared to control
Procedure: (§5) Total protein was assayed using the method described by Bradford. The VEGF ELISA Assay Kit (VEGF) and ELISA Kit, (#VGF31-[…]) were purchased from (Eagle Biosciences CO., LTD, Amherst, NH, USA). The kit is a sandwich enzyme immunoassay for the in vitro quantitative determination of VEGF concentrations in cell culture supernates, serum and plasma according to the manufacturer's instructions.

[3] = tested on: VEGF protein expression level in MCF-7 cell line; assay: VEGF ELISA in MCF-7 cell culture supernatant; assay type: cell-based, human; set-up: concentration or dose not given beside the values; details: MCF-7, ELISA, compared to control
Procedure: as §5

[4] = tested on: VEGFR-2 protein expression level in HepG2 cell line; assay: Human VEGF receptor-2 ELISA in HepG2; assay type: cell-based; set-up: concentration or dose not given beside the values; details: compared to control
Procedure: (§6) Total protein was assayed using the method described by Bradford. The Human VEGF receptor-2 ELISA Kit (ab213476), (96 tests) was purchased from (abcam®, Waltham, MA, USA). The kit is a sandwich enzyme immunoassay for the in vitro quantitative measurement of human VEGFR-2 in tissue homogenates, cell lysates and other biological fluids according to the manufacturer’s instructions.

[5] = tested on: VEGFR-2 protein expression level in MCF-7 cell line; assay: Human VEGF receptor-2 ELISA in MCF-7; assay type: cell-based; set-up: concentration or dose not given beside the values; details: MCF-7, ELISA, compared to control
Procedure: as §6

[6] = tested on: VEGF gene expression level in HepG2 cell line; assay: Real-time PCR of VEGF gene expression, HepG2; assay type: cell-based, human; details: HepG2, 3 days of treatment, compared to control, in words
Procedure: RT-PCR was applied to evaluate the VEGF gene expression level. Briefly, total RNA was extracted, and the extracted total RNA concentration was determined using a NanoDrop 2000 spectrophotometer (Thermo Fisher, Waltham, MA, USA). To determine the relative expression levels, the 2^−ΔΔCT method was used. NCBI/Primer Blast was used to define the primer sequences. The experiments were performed in quadruplicate. The primer sequences of VEGF and β-actin genes are listed below: […]

- melting point: 264 to 266 °C
Structure (SMILES): Cc1ccc(N=Nc2c(N)nn3c(N)c(N=Nc4ccc(S(=O)(=O)N=C(N)N)cc4)c(N)nc23)cc1 [Compound 7, N-(Diaminomethylene)-4-((2,5,7-Triamino-3-(4-Tolyldiazenyl)Pyrazolo[1,5-a]Pyrimidin-6-yl)Diazenyl)Benzenesulfonamide]
- IC50 (HepG2 cell line; TPGS-coated vs uncoated niosomes vs pure compound, read-out: IC50 Hepg2 Liver Carcinoma): 6 µM
- IC50 (HepG2 cell line; read-out: IC50 HepG2 Livercarcinoma): 6 µM
- IC50 (MCF-7 cell line): 12 µM
- IC50 (CaCo-2 cell line): 6 µM
- IC50 (A-549 cell line): 12 µM
- IC50 [1]: 6 to 50 µM
- VEGF 24 h % Inhibition ([2]; 24 h): 51.5%
- VEGF 72 h % Inhibition ([2]; 72 h): 70.3%
- VEGF 24 h % Inhibition ([3]; 24 h): 50%
- VEGF 72 h % Inhibition ([3]; 72 h): 62.5%
- VEGFR-2 24 h % Inhibition ([4]; 24 h): 69.7%
- VEGFR-2 72 h % Inhibition ([4]; 72 h): 72.3%
- VEGFR-2 24 h % Inhibition ([5]; 24 h): 60%
- VEGFR-2 72 h % Inhibition ([5]; 72 h): 62.5%
- VEGF gene expression level [6]: best VEGF gene expression level downregulation

From PMC8949375, “Design, Green Synthesis and Tailoring of Vitamin E TPGS Augmented Niosomal Nano-Carrier of Pyrazolopyrimidines as Potential Anti-Liver and Breast Cancer Agents with Accentuated Oral Bioavailability” (Pharmaceuticals, 2022)
